Reference: publication PMC5107945, “Abscinazole-E3M, a practical inhibitor of abscisic acid 8′-hydroxylase for improving drought tolerance” (Scientific Reports, 2016)

How the values were obtained:
[1] = tested on: Arabidopsis drought tolerance; assay: Arabidopsis drought tolerance analysis; assay type: in vivo; settings: 50 μM spray, water withheld 12 days, then rehydrated
Description: (§1) The effects of (-)-Abz-[…] were also determined relative to stomatal apertures. Arabidopsis grown in soil pots underwent moderate drought stress under the optimal growth conditions of 22 °C and 60% relative humidity. Under these growth conditions, the leaf surface temperature of the mock-treated controls was 19.5 °C, which was lower than the surrounding atmospheric temperature because of transpirational water loss (Fig. 6a,b)[30]. […] Finally, we examined the effects of (-)-Abz-[…] on drought tolerance under more practical conditions. Three-week-old Arabidopsis were sprayed with an aqueous solution containing 50 μM (-)-Abz-[…]. Water was not supplied for 12 days, and then the plants were rehydrated. […] We also tested the effects of (-)-Abz-[…] on a monocot crop, maize, to evaluate whether (-)-Abz-[…] affected stomatal movement and enhanced ABA response across plant species. […] Thus, the effects of (-)-Abz-[…] were not restricted to the model plant Arabidopsis. Figure 6 Effects of (-)-Abz-[…] on Arabidopsis drought tolerance. (a,b) Three-week-old plants were treated with 50 μM of (-)-Abz-[…] and incubated overnight at 22 °C with 60% relative humidity. Thermal images of plants were obtained using a thermal imaging camera ([…], Nippon Avionics Co., Ltd.), and the average temperatures on leaf surfaces were determined with NS9200 software (n = 5, error bars represent s.d.). […]

[2] = tested on: endogenous ABA level; assay: Endogenous ABA levels in maize; assay type: in vivo, Maize (cv. Gold rush); settings: maize 2-week-old seedlings, roots dipped in 100 μM overnight, aerial shoot tissues
[3] = tested on: endogenous ABA level; assay: Endogenous ABA levels in Arabidopsis; assay type: in vivo; settings: Arabidopsis four-week-old plants, 50 μM, overnight
Description: as §1

[4] = target: T1, Rice recombinant CYP701A6 (ent-kaurene oxidase) (Oryza sativa subsp. japonica, UniProt Q5Z5R4); assay: CYP701A6 inhibition assay (formation of end product KA); assay type: biochemical; settings: Rice recombinant CYP701A6 expressed in insect cells; 10 μM ent-kaurene; formation of KA; read-out: CYP701A IC50
T1 construct: made in house; host or cells: insect cells (baculovirus vector)
T1 sequence (Q5Z5R4 1-505): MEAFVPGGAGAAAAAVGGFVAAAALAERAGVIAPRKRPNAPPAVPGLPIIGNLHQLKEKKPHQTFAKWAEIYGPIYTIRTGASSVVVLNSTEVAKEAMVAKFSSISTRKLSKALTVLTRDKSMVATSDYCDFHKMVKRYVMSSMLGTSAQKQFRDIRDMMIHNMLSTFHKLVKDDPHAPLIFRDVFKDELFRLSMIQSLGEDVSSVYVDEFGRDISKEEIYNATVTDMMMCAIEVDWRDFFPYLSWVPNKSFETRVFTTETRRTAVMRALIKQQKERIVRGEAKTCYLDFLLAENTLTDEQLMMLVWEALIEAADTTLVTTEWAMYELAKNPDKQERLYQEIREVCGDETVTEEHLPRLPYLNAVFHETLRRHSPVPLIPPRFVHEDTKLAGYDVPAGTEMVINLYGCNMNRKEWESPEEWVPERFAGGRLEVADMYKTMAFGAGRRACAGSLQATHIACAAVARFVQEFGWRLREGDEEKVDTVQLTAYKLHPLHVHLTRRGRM
Description: To evaluate the enzymatic selectivity between CYP707A and CYP701A, we examined the inhibitory activity against recombinant rice containing CYP701A6 expressed in insect cells using a baculovirus vector. This enzyme catalyses all three steps to KA via the corresponding alcohol and aldehyde, and consequently, the kinetic analysis is very complicated. Therefore, we evaluate the IC50 value for the formation of the end product, KA, instead of the KI value.
Reaction mixtures, containing 0.058 μM of […] microsomes, ATR2 (0.115 U), ent-kaurene (final concentration of 10 μM), inhibitors (0 for control, 1.5–1,500 μM in 8 μL dimethylformamide), and 20 mM NADPH in 500 mM potassium phosphate buffer (pH 7.4), were incubated at 30 °C for 10 min. Reactions were initiated by adding NADPH and stopped by the addition of 100 μL of 1 M HCl. Abietic acid, as the internal standard, was then added to the reaction product, which was extracted with EtOAc (400 μL × 3). The organic phase was dried over Na2SO4 and concentrated in vacuo. To derivatize the reaction products, MeOH (50 μL) and trimethylsilyldiazomethane (2 M in 5 μL hexane) were added, and the reaction mixture was incubated at room temperature for 10 min. The organic solvent was removed under N2, and samples were adjusted to 150 μL with hexane before a gas chromatography-mass spectrometry analysis (QP2010-plus; Shimadzu Corp., Kyoto, Japan). The conditions were as follows: the column was DB-5ms (0.25 mm id × 15 m, 0.25 μm film thickness; Agilent J & W, Folsom, CA, USA), the carrier gas was He, the flow rate was 1.65 mL min^−1, the injection port temperature was 280 °C, splitless injection, and the programmed column temperature was a step gradient of 80 °C for 1 min, 80–200 °C at 18 °C min^−1, 200–210 °C at 2 °C min^−1, 210–280 °C at 30 °C min^−1, and then 280 °C for 3 min. The KA content was calculated from the area ratio of molecular and fragment ions of methyl KA (m/z 316, 273, and 257) to those of methyl abietate (m/z 316 and 256). The inhibition ratio was defined as [(A − B)/A] × 100, where A = the amount of methyl KA/methyl abietate when the inhibitor was absent from the reaction mixture (control), and B = the amount of methyl KA/methyl abietate when the inhibitor was present. All of the tests were conducted at least three times.

abscinazole-E3M [(−)-6]
Drought tolerance and survival [1]: induced significant drought tolerance and increased the survival rate | Endogenous ABA levels [2]: increased the endogenous ABA levels | Endogenous ABA content [3]: significantly increase the ABA content | IC50 [4]: 780 nM
